Results taken from patent US20250215029A1 (Recludix Pharma, Inc., priority 2022, published 2025).
Read-outs that look alike come from different tables or passages of the source.

What was measured:
[1] = molecular target: T1, pY641-STAT6 in PBMC (Homo sapiens, UniProt P42226); assay: MSD-pSTAT-PBMC Assay (pSTAT6, IL-4 stimulated); format: cell-based; conditions: compound 3 hrs, then 1 ng/mL IL-4 for 10 min
T1 construct: Cryopreserved Peripheral Blood Mononuclear Cells (PBMC) are from AllCells; host or cells: cryopreserved PBMC
T1 sequence (P42226 1-847): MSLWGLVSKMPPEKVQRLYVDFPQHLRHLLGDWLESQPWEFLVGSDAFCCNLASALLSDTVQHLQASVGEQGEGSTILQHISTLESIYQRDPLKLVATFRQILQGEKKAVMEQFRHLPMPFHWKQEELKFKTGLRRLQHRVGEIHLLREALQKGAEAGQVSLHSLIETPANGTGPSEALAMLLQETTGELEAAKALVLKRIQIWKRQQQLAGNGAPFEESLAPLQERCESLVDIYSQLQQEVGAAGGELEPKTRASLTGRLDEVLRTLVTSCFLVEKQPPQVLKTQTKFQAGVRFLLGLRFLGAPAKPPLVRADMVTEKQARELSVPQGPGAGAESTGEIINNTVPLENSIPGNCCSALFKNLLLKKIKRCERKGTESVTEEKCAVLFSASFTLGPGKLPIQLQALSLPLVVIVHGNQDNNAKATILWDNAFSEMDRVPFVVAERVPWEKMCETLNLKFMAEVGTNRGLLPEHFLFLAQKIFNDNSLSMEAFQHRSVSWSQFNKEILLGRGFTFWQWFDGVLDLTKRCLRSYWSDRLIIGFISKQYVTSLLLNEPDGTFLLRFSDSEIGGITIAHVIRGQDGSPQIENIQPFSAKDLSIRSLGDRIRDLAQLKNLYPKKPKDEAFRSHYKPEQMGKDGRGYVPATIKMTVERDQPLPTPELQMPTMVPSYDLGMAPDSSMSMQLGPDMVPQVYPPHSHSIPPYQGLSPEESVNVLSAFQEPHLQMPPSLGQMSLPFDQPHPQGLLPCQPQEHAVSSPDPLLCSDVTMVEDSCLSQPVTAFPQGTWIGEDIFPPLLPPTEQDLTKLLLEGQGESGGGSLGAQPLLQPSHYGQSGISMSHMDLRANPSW
Outline: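 Inhibition of cytokine-induced STAT phosphorylation was measured in recovered human PBMC after 3 hrs compound exposure and a 10 min IL-4 (1 ng/mL) or IL-6 (10 ng/mL) challenge. MSD detection of pY641-STAT6 or pY705-STAT3 yielded IC50 values.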

[2] = molecular target: T2, pY705-STAT3 in PBMC (Homo sapiens, UniProt P40763); assay: MSD-pSTAT-PBMC Assay (pSTAT3, IL-6 stimulated); format: cell-based; conditions: PBMC, compound 3 hrs, then 10 ng/mL IL-6 for 10 min
T2 construct: Cryopreserved Peripheral Blood Mononuclear Cells (PBMC) are from AllCells; host or cells: cryopreserved PBMC
T2 sequence (P40763 whole entry): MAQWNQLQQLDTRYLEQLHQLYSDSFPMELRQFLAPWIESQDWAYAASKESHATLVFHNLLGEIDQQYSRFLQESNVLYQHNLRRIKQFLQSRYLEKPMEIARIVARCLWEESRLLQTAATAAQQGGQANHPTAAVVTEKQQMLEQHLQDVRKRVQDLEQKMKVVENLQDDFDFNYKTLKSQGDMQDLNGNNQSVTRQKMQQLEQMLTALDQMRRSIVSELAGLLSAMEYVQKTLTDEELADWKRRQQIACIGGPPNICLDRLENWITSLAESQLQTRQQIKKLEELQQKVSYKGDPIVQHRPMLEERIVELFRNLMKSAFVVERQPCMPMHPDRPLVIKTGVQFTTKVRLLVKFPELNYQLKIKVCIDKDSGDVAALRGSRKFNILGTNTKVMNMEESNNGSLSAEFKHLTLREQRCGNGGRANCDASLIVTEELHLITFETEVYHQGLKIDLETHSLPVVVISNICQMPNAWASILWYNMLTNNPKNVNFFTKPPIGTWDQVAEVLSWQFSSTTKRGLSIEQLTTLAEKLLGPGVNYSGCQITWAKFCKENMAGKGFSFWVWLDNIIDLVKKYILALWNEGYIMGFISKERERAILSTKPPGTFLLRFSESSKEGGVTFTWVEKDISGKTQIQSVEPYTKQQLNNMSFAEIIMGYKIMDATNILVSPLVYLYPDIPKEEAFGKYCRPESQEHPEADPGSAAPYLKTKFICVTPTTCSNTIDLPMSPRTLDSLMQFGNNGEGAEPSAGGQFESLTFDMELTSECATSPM
Outline: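 pY705-STAT3 was detected electrochemiluminescently on total-STAT3 capture plates, using lysates of human PBMCs given compound for 3 h and then IL-6 (10 ng/mL, 10 min). Values were background-subtracted against unstimulated wells and set relative to DMSO. IC50 was fitted with variable slope.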

[3] = PBMC, Table 115, read-out: STAT6
[4] = PBMC, Table 1114, read-out: pSTAT6

Compound | IC50 ([1]; STAT6, PBMC, Table 115) | IC50 ([2]; Table 115, read-out: STAT3) | IC50 [1, 3] | IC50 [1, 4] | IC50 ([2]; Table 1114, read-out: pSTAT3)
CCCOC(=O)[C@H](C)NP(=O)(Cc1ccc2sc(C(=O)N[C@H]3CCC[C@H]4CC[C@@H](C(=O)N5CC(c6cnccc6N(C)C)C5)N4C3=O)cc2c1)Oc1ccccc1 (stereo partly drawn) [Compound 973, propyl (((2-(((3S,6S,9aS)-3-(3-(4-(dimethylamino)pyridin-3-yl)azetidine-1-carbonyl)-5-oxooctahydro-1H-pyrrolo[1,2-a]azepin-6-yl)carbamoyl)benzo [b]thiophen-5-yl)methyl)(phenoxy)phosphoryl)-L-alaninate] | > 3000 nM | < 100 nM |  |  | 
CC(C)(C)C(=O)SCCOP(=O)(OCCSC(=O)C(C)(C)C)C(F)c1ccc2sc(C(=O)N[C@H]3CCC[C@H]4CC[C@@H](C(=O)N5CC(c6cnccc6F)C5)N4C3=O)cc2c1 (stereo partly drawn) [Compound 984, S,S′-((((fluoro(2-(((3S,6S,9aS)-3-(3-(4-fluoropyridin-3-yl)azetidine-1-carbonyl)-5-oxooctahydro-1H-pyrrolo[1,2-a]azepin-6-yl)carbamoyl)benzo [b]thiophen-5-yl)methyl)phosphoryl)bis(oxy))bis(ethane-2,1-diyl))bis(2,2-dimethyl-propanethioate)] |  | < 100 nM | > 3000 nM |  | 
CC(C)CC(=O)SCCOP(=O)(Oc1cccc(C#N)c1)C(F)(F)c1ccc2sc(C(=O)N[C@H]3CCC[C@H]4CC[C@@H](C(=O)N5CC(c6cccnc6)C5)N4C3=O)cc2c1 (stereo partly drawn) [Compound 1008, S-(2-(((3-cyanophenoxy) (difluoro(2-(((3S,6S,9aS)-5-oxo-3-(3-(pyridin-3-yl)azetidine-1-carbonyl)octahydro-1H-pyrrolo[1,2-a]azepin-6-yl)carbamoyl)benzo [b]thiophen-5-yl)methyl)phosphoryl)oxy)ethyl) 3-methylbutanethioate] | > 3000 nM | 100 to 1000 nM |  |  | 
CC(C)C(=O)SCCOP(=O)(OCCSC(=O)C(C)C)C(F)(F)c1ccc2sc(C(=O)N[C@H]3CCC[C@H]4CC[C@@H](C(=O)N5CC(c6cccnc6)C5)N4C3=O)cc2c1 [Compound 1009, S,S′-((((difluoro(2-(((3S,6S,9aS)-5-oxo-3-(3-(pyridin-3-yl)azetidine-1-carbonyl)octahydro-1H-pyrrolo[1,2-a]azepin-6-yl)carbamoyl)benzo [b]thiophen-5-yl)methyl)phosphoryl)bis(oxy))bis(ethane-2,1-diyl)) bis(2-methyl-propanethioate)] |  | < 100 nM | 100 to 1000 nM |  | 
COCC(=O)SCCOP(=O)(OCCSC(=O)COC)C(F)(F)c1ccc2sc(C(=O)N[C@H]3CCC[C@H]4CC[C@@H](C(=O)N5CC(c6cccnc6)C5)N4C3=O)cc2c1 [Compound 1011, S,S′-((((difluoro(2-(((3S,6S,9aS)-5-oxo-3-(3-(pyridin-3-yl)azetidine-1-carbonyl)octahydro-1H-pyrrolo[1,2-a]azepin-6-yl)carbamoyl)benzo [b]thiophen-5-yl)methyl)phosphoryl)bis(oxy))bis(ethane-2,1-diyl)) bis(2-methoxyethanethioate)] |  | < 100 nM | 100 to 1000 nM |  | 
CC(C)(C)C(=O)SCCOP(=O)(OCCSC(=O)C(C)(C)C)C(F)(F)c1ccc2sc(C(=O)N[C@H]3CCC[C@H]4CC[C@@H](C(=O)N5CC(CS(C)(=O)=O)C5)N4C3=O)cc2c1 [Compound 1014, S,S′-((((difluoro(2-(((3S,6S,9aS)-3-(3-((methylsulfonyl)methyl)azetidine-1-carbonyl)-5-oxooctahydro-1H-pyrrolo[1,2-a]azepin-6-yl)carbamoyl)benzo [b]thiophen-5-yl)methyl)phosphoryl)bis(oxy))bis(ethane-2,1-diyl)) bis(2,2-dimethyl-propanethioate)] |  | < 100 nM | 100 to 1000 nM |  | 
CC(C)CC(=O)SCCOP(=O)(OCCSC(=O)CC(C)C)C(F)(F)c1ccc2sc(C(=O)N[C@H]3CCCC[C@H]4CC[C@@H](C(=O)N5CC(c6ccccc6)CC56CC6)N4C3=O)cc2c1 (stereo partly drawn) [Compound 1082, S,S′-((((difluoro(2-(((3S,6S,10aS)-5-oxo-3-(6-phenyl-4-azaspiro[2.4]heptane-4-carbonyl)decahydropyrrolo[1,2-a]azocin-6-yl)carbamoyl)benzo [b]thiophen-5-yl)methyl)phosphoryl)bis(oxy))bis(ethane-2,1-diyl)) bis(3-methylbutanethioate)] |  | > 3000 nM | 100 to 1000 nM |  | 
CC(C)CC(=O)SCCOP(=O)(OCCSC(=O)CC(C)C)[C@@H](F)c1ccc2sc(C(=O)N[C@H]3CCC[C@H]4CC[C@@H](C(=O)N5CC(c6cccnc6)C5)N4C3=O)cc2c1 [Compound 1089, S,S′-(((((R)-fluoro(2-(((3S,6S,9aS)-5-oxo-3-(3-(pyridin-3-yl)azetidine-1-carbonyl)octahydro-1H-pyrrolo[1,2-a]azepin-6-yl)carbamoyl)benzo [b]thiophen-5-yl)methyl)phosphoryl)bis(oxy))bis(ethane-2,1-diyl)) bis(3-methylbutanethioate] |  | < 100 nM | 100 to 1000 nM |  | 
CC(C)CC(=O)SCCOP(=O)(OCCSC(=O)CC(C)C)C(F)(F)c1ccc2ccc(C(=O)N[C@H]3CCCC[C@H]4CC[C@@H](C(=O)N5CC(c6cc[nH]c(=O)c6)CC56CC6)N4C3=O)cc2c1 (stereo partly drawn) [Compound 1092, S,S′-((((difluoro(7-(((3S,6S,10aS)-5-oxo-3-(6-(2-oxo-1,2-dihydropyridin-4-yl)-4-azaspiro[2.4]heptane-4-carbonyl)decahydropyrrolo[1,2-a]azocin-6-yl)carbamoyl)naphthalen-2-yl)methyl)phosphoryl)bis(oxy))bis(ethane-2,1-diyl)) bis(3-methylbutanethioate)] |  | 100 to 1000 nM | < 100 nM |  | 
CC(C)CC(=O)SCCOP(=O)(OCCSC(=O)CC(C)C)C(F)(F)c1ccc2ccc(C(=O)N[C@H]3CCCC[C@H]4CC[C@@H](C(=O)N5CC(c6ccccc6)CC56CC6)N4C3=O)cc2c1 (stereo partly drawn) [Compound 1101, S,S′-((((difluoro(7-(((3S,6S,10aS)-5-oxo-3-(6-phenyl-4-azaspiro[2.4]heptane-4-carbonyl)decahydropyrrolo[1,2-a]azocin-6-yl)carbamoyl)naphthalen-2-yl)methyl)phosphoryl)bis(oxy))bis(ethane-2,1-diyl)) bis(3-methylbutanethioate)] |  | > 3000 nM | < 100 nM |  | 
COCCC(=O)SCCOP(=O)(OCCSC(=O)CCOC)C(F)(F)c1ccc2sc(C(=O)N[C@H]3CCC[C@H]4CC[C@@H](C(=O)N5CC(c6cccnc6)C5)N4C3=O)cc2c1 [Compound 1106, S,S′-((((difluoro(2-(((3S,6S,9aS)-5-oxo-3-(3-(pyridin-3-yl)azetidine-1-carbonyl)octahydro-1H-pyrrolo[1,2-a]azepin-6-yl)carbamoyl)benzo [b]thiophen-5-yl)methyl)phosphoryl)bis(oxy))bis(ethane-2,1-diyl)) bis(3-methoxy-propanethioate)] |  | < 100 nM | 100 to 1000 nM |  | 
S,S′- ((((difluoro(2- (((3S,6S,9aS)-5-oxo-3- (3-(pyridin-3- yl)azetidine-1- carbonyl)octahydro- 1H-pyrrolo[1,2-a] azepin-6-yl) carbamoyl)benzo[b] thiophen-5-yl)methyl) phosphoryl)bis(oxy)) bis(ethane-2,1-diyl)) bis(2,2- dimethylpropanethioate) [Compound 175] |  |  |  | 100 to 1000 nM | < 100 nM
S-(2- (((difluoro(2- (((3S,6S,9aS)-3-(3-((S- methylsulfonimidoyl) methyl)azetidine-1- carbonyl)-5- oxooctahydro-1H- pyrrolo[1,2-a]azepin-6- yl)carbamoyl)benzo[b] thiophen-5-yl)methyl) (((3-methylbutanoyl) thio)methoxy) phosphoryl)oxy)ethyl) 3-methylbutane thioate [Compound 178] |  |  |  | > 3000 nM | 100 to 1000 nM
S-(2-((((2- (((3S,6S,9aS)-3-(3-(3- cyanophenyl) azetidine-1-carbonyl)-5- oxooctahydro-1H- pyrrolo[1,2-a]azepin-6- yl)carbamoyl)benzo[b] thiophen-5-yl) difluoromethyl)(((3- methylbutanoyl)thio) methoxy)phosphoryl) oxy)ethyl) 3- methylbutane thioate [Compound 176] |  |  |  | 1000 to 3000 nM | < 100 nM
